Series [1] deals with TF1-IDH1^R132H cells. In words: EPO differentiation assay, cell pellet color evaluation (hemoglobinization assay). The conditions noted are these: concurrent schedule; COMPOUND 2 0.2 and 1.0 μM; AZA up to 1 uM. The format is cell-based. The text has this: (§1) EPO differentiation assay in TF1-IDH1^R132H cells. […] Endpoints assessed assays were: cell pellet color evaluation (hemoglobinization assay); HBG and KLF1 RNA by RT-qPCR; CD235a-positive cell populations by flow cytometry (differentiation markers); and Growth and apoptosis by IncuCyte Zoom real-time imaging.

Series [2] concerns TF1-IDH1^R132H cells. In words: HBG and KLF1 RNA by RT-qPCR in EPO differentiation assay. The note with it: concurrent schedule; for increase in HBG gene expression: COMPOUND 2 0.2 μM, AZA 1.0 μM, single agents or combined. The format is cell-based. The method, then: EPO differentiation assay in TF1-IDH1^R132H cells. […] Cells were treated with vehicle, AZA alone, COMPOUND 2 alone, or the combination of AZA+COMPOUND 2. In the sequential schedule, cells were pre-treated with AZA for three days before addition of COMPOUND 2. In the concurrent schedule, cells were co-treated with AZA and COMPOUND 2 throughout the assay. Endpoints assessed assays were: cell pellet color evaluation (hemoglobinization assay); HBG and KLF1 RNA by RT-qPCR; CD235a-positive cell populations by flow cytometry (differentiation markers); and Growth and apoptosis by IncuCyte Zoom real-time imaging.
Cells were treated with vehicle, AZA alone, COMPOUND 2 alone, or the combination of AZA+COMPOUND 2. In the sequential schedule, cells were pre-treated with AZA for three days before addition of COMPOUND 2. In the concurrent schedule, cells were co-treated with AZA and COMPOUND 2 throughout the assay.
On the technique in general: Quantitative PCR measures a nucleic acid by following its amplification.

For series [3] the following is noted: cited from earlier work.
In the next series the test system is TF-1-IDH1^R132H cells. In words: growth and apoptosis by IncuCyte Zoom real-time imaging. The format is cell-based. The conditions noted are these: AZA 1 μM; for cell growth compared to the DMSO control: COMPOUND 2 0.1, 0.3 or 1.0 μM; for induction of apoptosis: late time points (>60 hrs), combination with 0.1 and 0.3 μM COMPOUND 2. On the procedure: as §1
In order to track cell growth and death in real-time, a real-time analysis was performed using IncuCyte Zoom (FIG. 4).

For series [4], the system named is TF1-IDH1^R132H cells. In words: CD235a-positive cell populations by flow cytometry in EPO differentiation assay. The format is cell-based. The note with it: concurrent schedule.
From the text: as §1
(A flow cytometer gives signals particle by particle.)

Series [5] can be described thus: solubility in fasted state simulated intestinal fluid (FASSIF). The format is physicochemical. The note with it: pH 6.1, fassif, thermodynamic from solid, pH of 6.1 at 4 hours. The method, then:
In comparison, amorphous spray-dried dispersions have a solubility of about 0.05 mg/mL to about 0.50 mg/mL in FASSIF at 3 hours.

≈ marks a conversion by molar mass, not a printed value. Read-outs that look alike come from different tables or passages of the source.

The values below come from US10653710B2, “Combination therapy for treating malignancies” (Agios Pharmaceuticals, Inc., priority 2015, dated 2020).

As to `Nc1ncn([C@@H]2O[C@H](CO)[C@@H](O)[C@H]2O)c(=O)n1` [AZA, 4-amino-1-β-D-ribofuranozyl-s-triazin-2(1H)-one], the “hemoglobinization (red color of cell pellets)” value in the series on TF1-IDH1^R132H cells [1] was “little or no effect on cell pellet color”. Moreover, the “increase in HBG gene expression” value in the series with TF1-IDH1^R132H cells [2] is given as 1 fold. Moreover, the solubility entry in series [3] (in acetone, ethanol and methyl ketone) is “insoluble”; in series [3] (in dimethylsulfoxide (DMSO)), “soluble”; in series [3] (in ethanol/water (50/50), propylene glycol and polyethylene glycol), “slightly soluble”; in series [3] (in water, water-saturated octanol, 5% dextrose in water, N-methyl-2-pyrrolidone, normal saline and 5% Tween 80 in water), “sparingly soluble”. For the same compound, the “cell growth compared to the DMSO control” value with TF-1-IDH1^R132H cells is “slowed growth”. Besides, the induction of apoptosis result with TF-1-IDH1^R132H cells is “increased apoptosis above the DMSO control”.
Turning to `N#Cc1ccnc(N2C(=O)CC[C@H]2C(=O)N(c2cncc(F)c2)[C@H](C(=O)NC2CC(F)(F)C2)c2ccccc2Cl)c1` [COMPOUND 2, (S)-N-((S)-1-(2-chlorophenyl)-2-((3,3-difluorocyclobutyl)amino)-2-oxoethyl)-1-(4-cyanopyridin-2-yl)-N-(5-fluoropyridin-3-yl)-5-oxopyrrolidine-2-carboxamide], in the series on TF1-IDH1^R132H cells [1], the “hemoglobinization (red color of cell pellets)” value is “increased hemoglobin production in a dose-dependent manner”. Moreover, in the series with TF1-IDH1^R132H cells [2], the “RNA expression of differentiation marker KLF1” value is recorded as “Dose-dependent increases” and the “increase in HBG gene expression” value is 25 fold. The “RNA expression of differentiation marker HBG” value with TF1-IDH1^R132H cells [2] (combination with COMPOUND 2 0.2 μM) was “dose-dependent increases”. Besides, the “erythroid differentiation marker CD235a (Glycophorin A) expression” value in the series with TF1-IDH1^R132H cells [4] is reported as “increased erythroid differentiation marker CD235a”. For the same compound, in the series with TF-1-IDH1^R132H cells, the “cell growth compared to the DMSO control” value is “slightly promoted cell growth” and the induction of apoptosis entry is given as “no effect on induction of apoptosis”.
Turning to `Nc1ncn([C@H]2C[C@H](O)[C@@H](CO)O2)c(=O)n1` [Decitabine, 4-amino-1-(2-deoxy-β-D-erythro-pentofuranosyl)-1,3,5-triazin-2(1H)one], the solubility result in series [3] (in dimethylsulfoxide (DMSO)) is on record as “soluble”; in series [3] (in ethanol/water (50/50), methanol/water (50/50) and methanol), “slightly soluble”; in series [3] (in water), “sparingly soluble”.
In the case of `N#Cc1ccnc(N2C(=O)CC[C@H]2C(=O)N(c2cncc(F)c2)[C@H](C(=O)NC2CC(F)(F)C2)c2ccccc2Cl)c1` [Form 2, (S)-N-((S)-1-(2-chlorophenyl)-2-((3,3-difluorocyclobutyl)amino)-2-oxoethyl)-1-(4-cyanopyridin-2-yl)-N-(5-fluoropyridin-3-yl)-5-oxopyrrolidine-2-carboxamide], in series [5], the solubility at 4 h was roughly 0.018 mg/mL (≈ 30.9 µM).

One may read the solubility as the dissolved amount per volume that the medium holds.
